Experimental findings from US20090018134A1, “Compounds - 945” (AstraZeneca AB, priority 2007, published 2009) are described below.

For one assay, the target named is T1, mTOR (Homo sapiens, UniProt P42345).
T1 construct: FLAG; made in house
T1 sequence (P42345 1362-2549): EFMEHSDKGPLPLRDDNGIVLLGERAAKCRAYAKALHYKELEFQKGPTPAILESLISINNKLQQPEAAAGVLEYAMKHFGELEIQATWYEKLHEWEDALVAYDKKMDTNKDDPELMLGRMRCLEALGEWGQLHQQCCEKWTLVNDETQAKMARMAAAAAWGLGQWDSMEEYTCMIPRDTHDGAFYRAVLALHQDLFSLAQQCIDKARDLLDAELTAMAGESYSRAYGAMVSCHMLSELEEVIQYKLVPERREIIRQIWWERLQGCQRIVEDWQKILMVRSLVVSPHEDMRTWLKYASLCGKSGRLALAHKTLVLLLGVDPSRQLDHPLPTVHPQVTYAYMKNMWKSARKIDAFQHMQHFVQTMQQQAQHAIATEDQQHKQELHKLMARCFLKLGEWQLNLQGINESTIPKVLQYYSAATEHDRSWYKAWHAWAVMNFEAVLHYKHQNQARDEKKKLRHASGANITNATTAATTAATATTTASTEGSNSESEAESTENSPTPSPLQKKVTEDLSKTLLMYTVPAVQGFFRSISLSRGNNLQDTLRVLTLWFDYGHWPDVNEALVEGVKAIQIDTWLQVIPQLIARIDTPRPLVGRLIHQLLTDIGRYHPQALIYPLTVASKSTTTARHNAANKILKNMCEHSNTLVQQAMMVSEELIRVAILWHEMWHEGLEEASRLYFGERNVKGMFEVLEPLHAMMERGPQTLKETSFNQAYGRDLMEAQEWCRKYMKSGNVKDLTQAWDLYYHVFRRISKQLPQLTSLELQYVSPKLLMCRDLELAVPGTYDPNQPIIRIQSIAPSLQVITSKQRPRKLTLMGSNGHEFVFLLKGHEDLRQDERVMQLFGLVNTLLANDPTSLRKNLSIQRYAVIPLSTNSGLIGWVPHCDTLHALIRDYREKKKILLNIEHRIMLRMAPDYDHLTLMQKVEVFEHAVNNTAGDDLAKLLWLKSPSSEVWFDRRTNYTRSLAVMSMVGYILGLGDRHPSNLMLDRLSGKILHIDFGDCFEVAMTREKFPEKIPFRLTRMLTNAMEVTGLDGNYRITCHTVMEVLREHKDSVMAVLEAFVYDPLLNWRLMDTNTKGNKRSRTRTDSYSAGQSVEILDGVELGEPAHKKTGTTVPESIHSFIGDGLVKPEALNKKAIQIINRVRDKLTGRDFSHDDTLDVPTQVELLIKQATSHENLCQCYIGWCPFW
Nature of the assay: In Vitro mTOR Kinase Assay (Echo), Test (a)(ii). The following applies: read-out: mTOR Kinase Assay (Echo). The format is biochemical. In a few lines:
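FLAG-tagged human mTOR truncation (residues 1362-2549) expressed in HEK293 cells and FLAG-purified. Compounds dispensed acoustically, reaction 2 h at room temperature, stopped with EDTA. Phosphorylation of biotinylated peptide detected by AlphaScreen with anti-p70 S6K (T389) antibody overnight; IC50 reported.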
Regarding `CCS(=O)(=O)C1(c2cc(N3CCOC[C@@H]3C)nc(-c3ccc(NC(=O)Nc4ccc(C(F)(F)F)cc4)cc3)n2)CC1` [Example 11k, 1-[4-[4-(1-ethylsulfonylcyclopropyl)-6-[(3S)-3-methylmorpholin-4-yl]pyrimidin-2-yl]phenyl]-3-[4-(trifluoromethyl)phenyl]urea], the IC50 worked out at 3.32 nM.
The same measure, in the same setting: under `CCS(=O)(=O)C1(c2cc(N3CCOC[C@@H]3C)nc(-c3ccc(NC(=O)NC(C)(C)CO)cc3)n2)CC1` [Example 11f, 1-[4-[4-(1-ethylsulfonylcyclopropyl)-6-[(3S)-3-methylmorpholin-4-yl]pyrimidin-2-yl]phenyl]-3-(1-hydroxy-2-methyl-propan-2-yl)urea] stands 3.37 nM; under `COc1ccc(NC(=O)Nc2ccc(-c3nc(N4CCOC[C@@H]4C)cc(C4(S(C)(=O)=O)CC4)n3)cc2)cn1` [Example 2o, 3-(6-methoxypyridin-3-yl)-1-[4-[4-[(3S)-3-methylmorpholin-4-yl]-6-(1-methylsulfonylcyclopropyl)pyrimidin-2-yl]phenyl]urea], 0.851 nM.
Regarding `C[C@H]1COCCN1c1cc(C2(S(C)(=O)=O)CC2)nc(-c2ccc(NC(=O)Nc3ccc(F)cc3)cc2)n1` [Example 2p, 3-(4-fluorophenyl)-1-[4-[4-[(3S)-3-methylmorpholin-4-yl]-6-(1-methylsulfonylcyclopropyl)pyrimidin-2-yl]phenyl]urea], the IC50 worked out at 2.7 nM.
Still for that read-out and setting: then `CS(=O)(=O)C1(c2cc(N3CCOCC3)nc(-c3ccc(NC(=O)NCCCO)cc3)n2)CC1` [Example 12h, 3-(3-hydroxypropyl)-1-[4-[4-(1-methylsulfonylcyclopropyl)-6-morpholin-4-ylpyrimidin-2-yl]phenyl]urea], with 3.92 nM.

Staying with this assay, now noted: table of enzyme assay Test (a)(ii); read-out: Test (a)(ii) IC50.
With `CNC(=O)Nc1ccc(-c2nc(N3CCOC[C@@H]3C)cc(C3(S(=O)(=O)C4CC4)CCNCC3)n2)cc1` [Example 21a, 1-[4-[4-(4-cyclopropylsulfonylpiperidin-4-yl)-6-[(3S)-3-methylmorpholin-4-yl]pyrimidin-2-yl]phenyl]-3-methylurea], the IC50 was found to be 37.8 nM.
For `CCNC(=O)Nc1ccc(-c2nc(N3CCOCC3)cc(C3(S(=O)(=O)c4ccccn4)CC3)n2)cc1` [Example 56b, 3-ethyl-1-[4-[4-morpholin-4-yl-6-(1-pyridin-2-ylsulfonylcyclopropyl)pyrimidin-2-yl]phenyl]urea], the IC50 amounted to 1.65 nM.
Take `C[C@H]1COCCN1c1cc(C2(S(=O)(=O)C3CC3)CCC2)nc(-c2ccc(NC(=O)NCCO)cc2)n1` [Example 36f, 1-[4-[4-(1-cyclopropylsulfonylcyclobutyl)-6-[(3S)-3-methylmorpholin-4-yl]pyrimidin-2-yl]phenyl]-3-(2-hydroxyethyl)urea]: the IC50 amounted to 2.78 nM.
As to `CCS(=O)(=O)C1(c2cc(N3CCOC[C@@H]3C)nc(-c3ccc(NC(=O)NCc4ncc[nH]4)cc3)n2)CC1` [Example 36w, 1-[4-[4-(1-ethylsulfonylcyclopropyl)-6-[(3S)-3-methylmorpholin-4-yl]pyrimidin-2-yl]phenyl]-3-(1H-imidazol-2-ylmethyl)urea], the IC50 turned out to be 110 nM.
With `C[C@H](CO)NC(=S)Nc1ccc(-c2nc(N3CCOC[C@@H]3C)cc(C3(S(C)(=O)=O)CCC3)n2)cc1` [Example 62c, 3-[(2R)-1-hydroxypropan-2-yl]-1-[4-[4-[(3S)-3-methylmorpholin-4-yl]-6-(1-methylsulfonylcyclobutyl)pyrimi-din-2-yl]phenyl]thiourea], the IC50 is 37.5 nM.
Turning to `C[C@H]1COCCN1c1cc(C2(S(=O)(=O)c3c(F)cccc3F)CC2)nc(-c2ccc(NC(=O)NCCO)cc2)n1` [Example 86c, 1-[4-[4-[1-(2,6-difluorophenyl)sulfonylcyclopropyl]-6-[(3S)-3-methylmorpholin-4-yl]pyrimidin-2-yl]phenyl]-3-(2-hydroxyethyl)urea], the IC50 is 2.47 nM.
On the same count and under the same terms, under `Cc1nn(C(F)F)c(C)c1S(=O)(=O)C1(c2cc(N3CCOC[C@@H]3C)nc(-c3ccc(NC(=O)NC4CC4)cc3)n2)CC1` [Example 75, 3-Cyclopropyl-1-[4-[4-[1-[1-(difluoromethyl)-3,5-dimethylpyrazol-4-yl]sulfonylcyclopropyl]-6-[(3S)-3-methylmorpholin-4-yl]pyrimidin-2-yl]phenyl]urea] stands 29 nM.
Regarding `C[C@H]1COCCN1c1cc(C2(S(=O)(=O)C3CC3)CC2)nc(-c2ccc(NC(=O)Nc3cnn(C)c3)nc2)n1` [Example 14d, 1-[5-[4-(1-cyclopropylsulfonylcyclopropyl)-6-[(3S)-3-methylmorpholin-4-yl]pyrimidin-2-yl]pyridin-2-yl]-3-(1-methylpyrazol-4-yl)urea], the IC50 is 14.3 nM.
Still for that read-out and setting: then `C[C@H]1COCCN1c1cc(C2(S(=O)(=O)c3ccc(OC(F)F)cc3)CC2)nc(-c2ccc(NC(=O)NCCF)cc2)n1` [Example 64e, 1-[4-[4-[1-[4-(difluoromethoxy)phenyl]sulfonyl-cyclopropyl]-6-[(3S)-3-methylmorpholin-4-yl]pyrimidin-2-yl]phenyl]-3-(2-fluoroethyl)urea], with 5.37 nM; and `C[C@H]1COCCN1c1cc(C2(S(=O)(=O)c3ccc(F)cc3)CC2)nc(-c2ccc(NC(=O)NC3CC3)nc2)n1` [Example 14i, 3-cyclopropyl-1-[5-[4-[1-(4-fluorophenyl)sulfonylcyclopro-pyl]-6-[(3S)-3-methylmorpholin-4-yl]pyrimidin-2-yl]pyridin-2-yl]urea], with 33.9 nM.
On to `C[C@H]1COCCN1c1cc(C2(S(=O)(=O)c3ccccc3Cl)CC2)nc(-c2ccc(NC(=O)NC3CC3)cc2)n1` [Example 76, 1-[4-[4-[1-(2-Chlorophenyl)sulfonylcyclopropyl]-6-[(3S)-3-methylmorpholin-4-yl]pyrimidin-2-yl]phenyl]-3-cyclopropylurea], for which the IC50 was 6.87 nM.
The same measure, in the same setting: under `CNCCS(=O)(=O)C1(c2cc(N3CCOCC3)nc(-c3ccc(NC(=O)NC)cc3)n2)CC1` [Example 97, 3-Methyl-1-[4-[4-[1-(2-methylaminoethylsulfonyl)cyclopropyl]-6-morpholin-4-ylpyrimidin-2-yl]phenyl]urea] stands 88.2 nM.
The same measure, in the same setting: under `C[C@H]1COCCN1c1cc(C2(S(=O)(=O)C3CCOCC3)CC2)nc(-c2ccc(NC(=O)NC3CC3)cc2)n1` [Example 94c, 3-cyclopropyl-1-[4-[4-[(3S)-3-methylmorpholin-4-yl]-6-[1-(oxan-4-ylsulfonyl)cyclopropyl]pyrimidin-2-yl]phenyl]urea] stands 11.8 nM; under `CC[C@H]1COCCN1c1cc(C2(S(C)(=O)=O)CC2)nc(-c2ccc(NC(=O)NCCF)cc2)n1` [Example 84c, 1-[4-[4-[(3S)-3-ethylmorpholin-4-yl]-6-(1-methylsulfonylcyclopropyl)pyrimidin-2-yl]phenyl]-3-(2-fluoroethyl)urea], 8.29 nM.
Still for that read-out and setting: under `CCNC(=O)Nc1ccc(-c2nc(N3CCOC[C@@H]3C)cc(C3(S(=O)(=O)c4ccc(F)cc4F)CC3)n2)cc1` [Example 57e, 3-[4-[4-[1-(2,4-difluorophenyl)sulfonylcyclopro-pyl]-6-[(3S)-3-methylmorpholin-4-yl]pyrimidin-2-yl]phenyl]-1-ethylurea] stands 7.28 nM.
For the compound `CNC(=O)Nc1ccc(-c2nc(N3[C@@H](C)COC[C@@H]3C)cc(C3(S(=O)(=O)C4CC4)CC3)n2)cc1` [Example 92c, 1-[4-[4-(1-cyclopropylsulfonylcyclopropyl)-6-[(3S,5)-3,5-dimethylmorpholin-4-yl]pyrimidin-2-yl]phenyl]-3-methylurea], the IC50 amounted to 7.8 nM.
Turning to `Cc1csc(S(=O)(=O)C2(c3cc(N4CCOC[C@@H]4C)nc(-c4ccc(NC(=O)NC5CCC5)cc4)n3)CC2)n1` [Example 25a, 3-cyclobutyl-1-[4-[4-[(3S)-3-methylmorpholin-4-yl]-6-[1-[(4-methyl-1,3-thiazol-2-yl)sulfonyl]cyclopropyl]pyrimidin-2-yl]phenyl]urea], the IC50 came to 2.24 nM.
Regarding `COc1ccc(NC(=O)Nc2ccc(-c3nc(N4CCOC[C@@H]4C)cc(C4(S(C)(=O)=O)CC4)n3)cc2)cn1` [Example 2o, 3-(6-methoxypyridin-3-yl)-1-[4-[4-[(3S)-3-methylmorpholin-4-yl]-6-(1-methylsulfonylcyclopropyl)pyrimidin-2-yl]phenyl]urea], the IC50 came to 0.403 nM.
Turning to `C[C@H]1COCCN1c1cc(C2(S(=O)(=O)c3ccc(F)cc3F)CC2)nc(-c2ccc(NC(=O)NCC3(O)CC3)cc2)n1` [Example 57g, 1-[4-[4-[1-(2,4-difluorophenyl)sulfonylcyclopro-pyl]-6-[(3S)-3-methylmorpholin-4-yl]pyrimidin-2-yl]phenyl]-3-[(1-hydroxycyclopropyl)methyl]urea], the IC50 worked out at 58.5 nM.
The same measure, in the same setting: under “3-(2,2-difluoroethyl)-1-[4-[4-[1-(2,4-difluorophenyl)sulfonylcyclopro-pyl]-6-[(3S)-3-methylmorpholin-4-yl]pyrimidin-2-yl]phenyl]urea [Example 57d]” stands 10 nM; under `C[C@H]1COCCN1c1cc(C2(S(=O)(=O)c3ccccn3)CC2)nc(-c2ccc(NC(=O)Nc3ncns3)cc2)n1` [Example 36ct, 1-[4-[4-[(3S)-3-methylmorpholin-4-yl]-6-(1-pyridin-2-ylsulfonylcyclopropyl)pyrimidin-2-yl]phenyl]-3-(1,2,4-thiadiazol-5-yl)urea], 1.57 nM.
On to `C[C@H]1COCCN1c1cc(C2(S(C)(=O)=O)CCCC2)nc(-c2cnc(NC(=O)NC3CC3)nc2)n1` [Example 14s, 3-cyclopropyl-1-[5-[4-[(3S)-3-methylmorpholin-4-yl]-6-(1-methylsulfonylcyclopentyl)pyri-midin-2-yl]pyrimidin-2-yl]urea], for which the IC50 came to 122 nM.
Turning to `Cc1csc(S(=O)(=O)C2(c3cc(N4CCOC[C@@H]4C)nc(-c4ccc(NC(=O)Nc5ccc(C(F)(F)F)cc5)cc4)n3)CC2)n1` [Example 25j, 1-[4-[4-[(3S)-3-methylmorpholin-4-yl]-6-[1-[(4-methyl-1,3-thiazol-2-yl)sulfonyl]cyclopropyl]pyrimidin-2-yl]phenyl]-3-[4-(trifluoromethyl)phenyl]urea], the IC50 stood at 5.76 nM.
`CCNC(=O)Nc1ccc(-c2nc(N3CCOC[C@H]3C)cc(C3(S(=O)(=O)c4ccccc4)CC3)n2)cc1` [Example 69, 1-[4-[4-[1-(Benzenesulfonyl)cyclopropyl]-6-[(3R)-3-methylmorpholin-4-yl]pyrimidin-2-yl]phenyl]-3-ethylurea]: the IC50 is 7.88 nM.
